The record followed here is PMC5218480 (PLoS ONE, 2017).

The subject of this experiment is MV-4-11 cells. In words: Gene expression microarray analysis (Affymetrix PrimeView) and GSEA. The class given is cell-based, human. The arrangement: RFU PODN (11730768_x_at) / Fold change /veh PODN (11730768_x_at) / RFU LINC00158 (11744669_a_at) / Fold change /veh LINC00158 (11744669_a_at) / RFU DUSP10 (11751237_a_at) / Fold change /veh DUSP10 (11751237_a_at) / RFU ID3 (11757404_x_at) / Fold change /veh ID3 (11757404_x_at) / RFU PLEKHG5 (11737974_s_at) / Fold change /veh PLEKHG5 (11737974_s_at) / RFU LRRC4B (11730491_at) / Fold change /veh LRRC4B (11730491_at) / RFU GIMAP4 (11747438_a_at) / Fold change /veh GIMAP4 (11747438_a_at) / RFU KRT8 (11758183_x_at) / Fold change /veh KRT8 (11758183_x_at) / RFU CNN1 (11734310_a_at) / Fold change /veh CNN1 (11734310_a_at) / RFU VPS37D (11726825_at) / Fold change /veh VPS37D (11726825_at) / RFU C10orf10 (11716522_x_at) / Fold change /veh C10orf10 (11716522_x_at) / RFU KIR2DL2 /// KIR2DL4 /// KIR2DL5A /// KIR2DL5B /// KIR2DS1 /// KIR2DS2 /// KIR2DS3 /// KIR2DS4 /// KIR3DL3 /// KIR3DL3 /// KIR3DS1 (11738374_at) / Fold change /veh KIR2DL2 /// KIR2DL4 /// KIR2DL5A /// KIR2DL5B /// KIR2DS1 /// KIR2DS2 /// KIR2DS3 /// KIR2DS4 /// KIR3DL3 /// KIR3DL3 /// KIR3DS1 (11738374_at) / RFU C1QL1 (11718748_at) / Fold change /veh C1QL1 (11718748_at) / RFU TMPRSS4 (11747572_a_at) / Fold change /veh TMPRSS4 (11747572_a_at) / RFU HAMP (11756126_x_at) / Fold change /veh HAMP (11756126_x_at) / RFU RNFT2 (11725882_a_at) / Fold change /veh RNFT2 (11725882_a_at) / RFU NR4A2 (11747474_a_at) / Fold change /veh NR4A2 (11747474_a_at) / RFU ABCC12 (11746883_a_at) / Fold change /veh ABCC12 (11746883_a_at) / RFU TMEM136 (11760407_x_at) / Fold change /veh TMEM136 (11760407_x_at) / RFU CLDN22 /// WWC2 (11732394_at) / Fold change /veh CLDN22 /// WWC2 (11732394_at) / RFU HLA-DPB1 (11760878_x_at) / Fold change /veh HLA-DPB1 (11760878_x_at) / RFU SPINT1 (11716480_a_at) / Fold change /veh SPINT1 (11716480_a_at) / RFU GAP43 (11754022_s_at) / Fold change /veh GAP43 (11754022_s_at) / RFU A4GNT (11735810_at) / Fold change /veh A4GNT (11735810_at) / RFU PRB3 (11715151_x_at) / Fold change /veh PRB3 (11715151_x_at) / RFU TUBB4B (11761932_at) / Fold change /veh TUBB4B (11761932_at) / RFU CAPN14 (11732068_a_at) / Fold change /veh CAPN14 (11732068_a_at) / RFU TMCC2 (11721928_a_at) / Fold change /veh TMCC2 (11721928_a_at) / RFU IRGQ (11745062_a_at) / Fold change /veh IRGQ (11745062_a_at) / RFU FAM174B (11720279_a_at) / Fold change /veh FAM174B (11720279_a_at) / RFU TMPRSS4 (11748680_a_at) / Fold change /veh TMPRSS4 (11748680_a_at) / RFU FAM212B (11763350_a_at) / Fold change /veh FAM212B (11763350_a_at) / RFU PLEKHG5 (11743358_a_at) / Fold change /veh PLEKHG5 (11743358_a_at) / RFU ZSCAN30 (11745921_a_at) / Fold change /veh ZSCAN30 (11745921_a_at) / RFU CMKLR1 (11741424_a_at) / Fold change /veh CMKLR1 (11741424_a_at) / RFU LOC101060620 /// MAPK8IP1 (11723275_at) / Fold change /veh LOC101060620 /// MAPK8IP1 (11723275_at) / RFU SPTSSB (11747773_x_at) / Fold change /veh SPTSSB (11747773_x_at) / RFU PRSS12 (11739890_at) / Fold change /veh PRSS12 (11739890_at) / RFU BIN1 (11741810_x_at) / Fold change /veh BIN1 (11741810_x_at) / RFU WNT11 (11732464_a_at) / Fold change /veh WNT11 (11732464_a_at) / RFU C10orf10 (11716521_a_at) / Fold change /veh C10orf10 (11716521_a_at) / RFU C5orf56 (11738089_at) / Fold change /veh C5orf56 (11738089_at) / RFU CYB561 (11721691_x_at) / Fold change /veh CYB561 (11721691_x_at) / RFU ANKRD19P (11752326_a_at) / Fold change /veh ANKRD19P (11752326_a_at) / RFU OR2T12 /// OR2T33 /// OR2T8 (11738714_s_at) / Fold change /veh OR2T12 /// OR2T33 /// OR2T8 (11738714_s_at) / RFU VCAN (11748164_a_at) / Fold change /veh VCAN (11748164_a_at) / RFU JSRP1 (11732532_at) / Fold change /veh JSRP1 (11732532_at) / RFU KRTAP10-11 (11738290_x_at) / Fold change /veh KRTAP10-11 (11738290_x_at) / RFU MYO3A (11730013_a_at) / Fold change /veh MYO3A (11730013_a_at) / RFU EBF3 (11725865_a_at) / Fold change /veh EBF3 (11725865_a_at) / RFU CAMK2N1 (11719241_x_at) / Fold change /veh CAMK2N1 (11719241_x_at) / RFU C5orf56 (11738088_a_at) / Fold change /veh C5orf56 (11738088_a_at) / RFU OLFML3 (11715873_a_at) / Fold change /veh OLFML3 (11715873_a_at) / RFU LOC100653217 /// NTM (11731650_a_at) / Fold change /veh LOC100653217 /// NTM (11731650_a_at) / RFU MAPK11 (11762145_a_at) / Fold change /veh MAPK11 (11762145_a_at) / RFU FIZ1 (11724087_x_at) / Fold change /veh FIZ1 (11724087_x_at) / RFU OASL (11726364_x_at) / Fold change /veh OASL (11726364_x_at) / RFU SOX15 (11748057_x_at) / Fold change /veh SOX15 (11748057_x_at) / RFU CD79A (11719716_a_at) / Fold change /veh CD79A (11719716_a_at) / RFU HIST1H1D (11736915_at) / Fold change /veh HIST1H1D (11736915_at) / RFU CASKIN2 (11723855_a_at) / Fold change /veh CASKIN2 (11723855_a_at) / RFU LOC730098 (11760151_x_at) / Fold change /veh LOC730098 (11760151_x_at) / RFU OR4N2 (11742367_at) / Fold change /veh OR4N2 (11742367_at) / RFU PRRT2 (11749266_a_at) / Fold change /veh PRRT2 (11749266_a_at) / RFU SNX32 (11753110_a_at) / Fold change /veh SNX32 (11753110_a_at) / RFU CDHR5 (11726645_a_at) / Fold change /veh CDHR5 (11726645_a_at) / RFU RCAN1 (11760418_a_at) / Fold change /veh RCAN1 (11760418_a_at) / RFU FAM167A (11723789_a_at) / Fold change /veh FAM167A (11723789_a_at) / RFU FAM26E (11764081_at) / Fold change /veh FAM26E (11764081_at) / RFU ISYNA1 (11749810_s_at) / Fold change /veh ISYNA1 (11749810_s_at) / RFU ACY1 (11761880_at) / Fold change /veh ACY1 (11761880_at) / RFU 11764098_at / Fold change /veh 11764098_at / RFU SAMD14 (11745864_x_at) / Fold change /veh SAMD14 (11745864_x_at) / RFU NPB (11741838_a_at) / Fold change /veh NPB (11741838_a_at) / RFU TMPRSS6 (11731388_a_at) / Fold change /veh TMPRSS6 (11731388_a_at) / RFU KRTAP10-2 (11738614_at) / Fold change /veh KRTAP10-2 (11738614_at) / RFU ARHGAP8 /// PRR5-ARHGAP8 (11727945_x_at) / Fold change /veh ARHGAP8 /// PRR5-ARHGAP8 (11727945_x_at) / RFU KRTAP5-7 /// NADSYN1 (11734609_at) / Fold change /veh KRTAP5-7 /// NADSYN1 (11734609_at) / RFU RASL12 (11751679_a_at) / Fold change /veh RASL12 (11751679_a_at) / RFU CDKN2B (11736163_a_at) / Fold change /veh CDKN2B (11736163_a_at) / RFU PRF1 (11729649_at) / Fold change /veh PRF1 (11729649_at) / RFU, ZNF638 /// ZNF638-IT1 / Fold change vs veh, ZNF638 /// ZNF638-IT1 / RFU, PANK3 / Fold change vs veh, PANK3 / RFU, SH3YL1 / Fold change vs veh, SH3YL1 / RFU, ZEB2 / Fold change vs veh, ZEB2 / RFU, NRIP1 / Fold change vs veh, NRIP1 / RFU, PTTG1IP / Fold change vs veh, PTTG1IP / RFU, CAPN2 / Fold change vs veh, CAPN2 / RFU, MED14 / Fold change vs veh, MED14 / RFU, SNORA58 / Fold change vs veh, SNORA58 / RFU, C1orf63 / Fold change vs veh, C1orf63 / RFU, LRRFIP1 / Fold change vs veh, LRRFIP1 / RFU, NDUFAF7 / Fold change vs veh, NDUFAF7 / RFU, SLC12A2 / Fold change vs veh, SLC12A2 / RFU, IBTK / Fold change vs veh, IBTK / RFU, ESF1 / Fold change vs veh, ESF1 / Fold change vs veh, TMEM50B / RFU, TAOK1 / Fold change vs veh, TAOK1 / RFU, ACBD3 / Fold change vs veh, ACBD3 / RFU, TMA16 / Fold change vs veh, TMA16 / RFU, RWDD3 / Fold change vs veh, RWDD3 / RFU, BCAT1 / Fold change vs veh, BCAT1 / RFU, EDEM3 / Fold change vs veh, EDEM3 / RFU, TMEM33 / Fold change vs veh, TMEM33 / RFU, WDR75 / Fold change vs veh, WDR75 / RFU, AHCTF1 / Fold change vs veh, AHCTF1 / RFU, TFRC / Fold change vs veh, TFRC / RFU, ZDHHC17 / Fold change vs veh, ZDHHC17 / RFU, NOM1 / Fold change vs veh, NOM1 / RFU, ARL8B / Fold change vs veh, ARL8B / RFU, ZBTB11 / Fold change vs veh, ZBTB11 / RFU, TAMM41 / Fold change vs veh, TAMM41 / RFU, KIAA1704 /// LOC100996395 / Fold change vs veh, KIAA1704 /// LOC100996395 / RFU, ING1 / Fold change vs veh, ING1 / RFU, TRMT61B / Fold change vs veh, TRMT61B / RFU, FUBP3 / Fold change vs veh, FUBP3 / RFU, TP53 / Fold change vs veh, TP53 / RFU, TNKS2 / Fold change vs veh, TNKS2 / RFU, ZFP14 / Fold change vs veh, ZFP14 / RFU, ACTR2 / Fold change vs veh, ACTR2 / RFU, PPP3R1 / Fold change vs veh, PPP3R1 / RFU, PIK3R1 / Fold change vs veh, PIK3R1 / RFU, HNRNPA1 / Fold change vs veh, HNRNPA1 / RFU, RNF170 / Fold change vs veh, RNF170 / RFU, ZNF28 / Fold change vs veh, ZNF28 / RFU, RNGTT / Fold change vs veh, RNGTT / RFU, OGT / Fold change vs veh, OGT / RFU, BRD1 / Fold change vs veh, BRD1 / RFU, MARS / Fold change vs veh, MARS / RFU, ZNF655 / Fold change vs veh, ZNF655 / RFU, FAHD1 / Fold change vs veh, FAHD1 / RFU, BDP1 / Fold change vs veh, BDP1 / RFU, LRRCC1 / Fold change vs veh, LRRCC1 / RFU, ARID1A / Fold change vs veh, ARID1A / RFU, ZNF146 / Fold change vs veh, ZNF146 / RFU, ZNF330 / Fold change vs veh, ZNF330 / RFU, GPN3 / Fold change vs veh, GPN3 / RFU, C9orf123 / Fold change vs veh, C9orf123 / RFU, N4BP2L2 / Fold change vs veh, N4BP2L2 / RFU, ARFIP1 / Fold change vs veh, ARFIP1 / RFU, FAM179B / Fold change vs veh, FAM179B / RFU, BCL10 / Fold change vs veh, BCL10 / RFU, UHRF1BP1L / Fold change vs veh, UHRF1BP1L / RFU, BET1 / Fold change vs veh, BET1 / RFU, CNOT2 / Fold change vs veh, CNOT2 / RFU, ZNF268 / Fold change vs veh, ZNF268 / Fold change vs veh, ZNF507 / RFU, DGCR2 / Fold change vs veh, DGCR2 / RFU, WDSUB1 / Fold change vs veh, WDSUB1 / Fold change vs veh, HSP90B1 /// MIR3652 / RFU, ADSS / Fold change vs veh, ADSS / RFU, GK / Fold change vs veh, GK / RFU, ZNF148 / Fold change vs veh, ZNF148 / RFU, TAF9 / Fold change vs veh, TAF9 / RFU, SLC1A5 / Fold change vs veh, SLC1A5 / RFU, SLMO2 / Fold change vs veh, SLMO2 / RFU, ABCC4 / Fold change vs veh, ABCC4 / RFU, LOC101060439 /// RAP1B / Fold change vs veh, LOC101060439 /// RAP1B / RFU, RFX7 / Fold change vs veh, RFX7 / RFU, GTPBP10 / Fold change vs veh, GTPBP10 / RFU, CNEP1R1 / Fold change vs veh, CNEP1R1 / RFU, BIVM-ERCC5 /// ERCC5 / Fold change vs veh, BIVM-ERCC5 /// ERCC5 / RFU, ILF3 / Fold change vs veh, ILF3 / RFU 11762660_at / Fold change /veh 11762660_at / RFU VCAN (11757783_s_at) / Fold change /veh VCAN (11757783_s_at) / RFU DDX43 (11728927_at) / Fold change /veh DDX43 (11728927_at) / RFU KRT8 (11758188_x_at) / Fold change /veh KRT8 (11758188_x_at) / RFU NKD1 (11759106_at) / Fold change /veh NKD1 (11759106_at) / RFU SRD5A1 (11742802_a_at) / Fold change /veh SRD5A1 (11742802_a_at) / RFU TPSAB1 /// TPSB2 (11721975_s_at) / Fold change /veh TPSAB1 /// TPSB2 (11721975_s_at) / RFU GSTM3 (11746129_a_at) / Fold change /veh GSTM3 (11746129_a_at) / RFU IL23R (11737362_x_at) / Fold change /veh IL23R (11737362_x_at) / RFU TMEM51 (11727254_a_at) / Fold change /veh TMEM51 (11727254_a_at) / RFU PIWIL2 (11732686_x_at) / Fold change /veh PIWIL2 (11732686_x_at) / RFU ORM1 (11744905_x_at) / Fold change /veh ORM1 (11744905_x_at) / RFU CCDC152 (11743942_at) / Fold change /veh CCDC152 (11743942_at) / RFU ECM1 (11717891_a_at) / Fold change /veh ECM1 (11717891_a_at) / RFU IL23R (11748794_a_at) / Fold change /veh IL23R (11748794_a_at) / RFU TNFAIP8L3 (11732012_x_at) / Fold change /veh TNFAIP8L3 (11732012_x_at) / RFU MBOAT4 (11741988_at) / Fold change /veh MBOAT4 (11741988_at) / RFU 11764193_at / Fold change /veh 11764193_at / RFU TMEM53 (11763286_at) / Fold change /veh TMEM53 (11763286_at) / RFU MAGEB2 (11727129_at) / Fold change /veh MAGEB2 (11727129_at) / RFU TMEM200A (11744735_a_at) / Fold change /veh TMEM200A (11744735_a_at) / RFU CCDC152 (11751479_a_at) / Fold change /veh CCDC152 (11751479_a_at) / RFU FAM211A (11726209_a_at) / Fold change /veh FAM211A (11726209_a_at) / RFU RGS16 (11746705_a_at) / Fold change /veh RGS16 (11746705_a_at) / RFU VCAN (11755009_s_at) / Fold change /veh VCAN (11755009_s_at) / RFU RHOB (11743442_s_at) / Fold change /veh RHOB (11743442_s_at) / RFU RGS16 (11720943_a_at) / Fold change /veh RGS16 (11720943_a_at) / RFU RGS16 (11720944_at) / Fold change /veh RGS16 (11720944_at) / RFU, VPS4B / Fold change vs veh, VPS4B / RFU, CREB1 / Fold change vs veh, CREB1 / RFU, DNAJC13 / Fold change vs veh, DNAJC13 / RFU, GNAQ / Fold change vs veh, GNAQ / RFU, CDK5R1 / Fold change vs veh, CDK5R1 / RFU, ZRANB3 / Fold change vs veh, ZRANB3 / RFU, CUL4A / Fold change vs veh, CUL4A / RFU, CCNY / Fold change vs veh, CCNY / RFU, UFL1 / Fold change vs veh, UFL1 / RFU, COG3 / Fold change vs veh, COG3 / RFU, DIAPH2 / Fold change vs veh, DIAPH2 / RFU, SKA2 / Fold change vs veh, SKA2 / RFU, AFF3 / Fold change vs veh, AFF3 / RFU, LMF1 / Fold change vs veh, LMF1 / RFU, IPO11 / Fold change vs veh, IPO11 / RFU, DFFB / Fold change vs veh, DFFB / RFU, FOXP1 / Fold change vs veh, FOXP1 / RFU, CARD8 / Fold change vs veh, CARD8 / RFU, STRN3 / Fold change vs veh, STRN3 / RFU, ADK / Fold change vs veh, ADK / RFU, RASSF2 / Fold change vs veh, RASSF2 / RFU, WIPF1 / Fold change vs veh, WIPF1 / RFU, LARP1B / Fold change vs veh, LARP1B / RFU, RASA1 / Fold change vs veh, RASA1 / RFU, RB1 / Fold change vs veh, RB1 / RFU, PPFIA1 / Fold change vs veh, PPFIA1 / RFU, MAT2A / Fold change vs veh, MAT2A / RFU, CCT5 / Fold change vs veh, CCT5 / RFU, WDR92 / Fold change vs veh, WDR92 / RFU, CUX1 / Fold change vs veh, CUX1 / RFU, TTC7A / Fold change vs veh, TTC7A / RFU, TMEM135 / Fold change vs veh, TMEM135 / RFU, DEPTOR / Fold change vs veh, DEPTOR / RFU, CPM / Fold change vs veh, CPM / RFU, DNAJB6 / Fold change vs veh, DNAJB6 / RFU, CACNA2D3 / Fold change vs veh, CACNA2D3 / RFU, DTX4 / Fold change vs veh, DTX4 / RFU, TFCP2 / Fold change vs veh, TFCP2 / RFU, GMCL1 /// GMCL1P1 / Fold change vs veh, GMCL1 /// GMCL1P1 / RFU, AEBP2 / Fold change vs veh, AEBP2 / RFU, SNHG1 /// SNORD22 /// SNORD25 /// SNORD26 /// SNORD27 /// SNORD28 /// SNORD29 /// SNORD31 / Fold change vs veh, SNHG1 /// SNORD22 /// SNORD25 /// SNORD26 /// SNORD27 /// SNORD28 /// SNORD29 /// SNORD31 / Fold change (Aza/veh), C12orf56 (ProbeSet 11735607_a_at) / Fold change (ACY-1035/veh), C12orf56 (ProbeSet 11735607_a_at) / Fold change (Aza/veh), FGFR1OP (ProbeSet 11751329_s_at) / Fold change (ACY-1035/veh), FGFR1OP (ProbeSet 11751329_s_at) / Fold change (Aza/veh), VPS36 (ProbeSet 11739960_a_at) / Fold change (ACY-1035/veh), VPS36 (ProbeSet 11739960_a_at) / RFU SYPL1 (11715823_x_at) / Fold change /veh SYPL1 (11715823_x_at) / RFU IGFBP7 (11715501_s_at) / Fold change /veh IGFBP7 (11715501_s_at) / RFU REEP3 (11722064_at) / Fold change /veh REEP3 (11722064_at) / RFU IGLL1 (11728026_x_at) / Fold change /veh IGLL1 (11728026_x_at): dose or concentration left out as unconfirmed. To be noted: MV-4-11 cells, 48 hours.

As for `Nc1ncn([C@@H]2O[C@H](CO)[C@@H](O)[C@H]2O)c(=O)n1` [azacitidine], the “Fold change /veh OR4N2 (11742367_at)” value is reported as 1.01.
